# In patent publication US12486268B2 (TRANSNEURAL THERAPEUTICS, INC., priority 2022, dated 2025):
# Where a name gives a salt, the structure may show the parent alone.
# Biological target: T1, human serotonin 2A receptors (5-HT2AR) (Homo sapiens, UniProt P28223)
# T1 construct: expressed in transfected cells; host or cells: HEK 293 cells
# Test: IP1 accumulation assay (HTRF)
# Assay type: cell-based
# Set-up: key to h5-HT2A EC50: A=<100; B=100 to 1000; C=>1000 to 10000; D=>10000; E=inactive
# Conditions: HEK 293 cells expressing human 5-HT2AR; for Emax: HEK293, IP1 production, relative to 5-HT, read-out: h5-HT2A Emax; for h5-HT2A EC50 / EC50: IP1 production (proxy for Gq activation); for EC50: read-out: h5-HT2A EC50
# Experimental: The functional activity of disclosed compounds is measured using an IP1 (inositol monophosphate) accumulation assay. The effects of disclosed compounds on IP1 production (a proxy for Gq activation) was measured in HEK 293 cells expressing human serotonin 2A receptors (5-HT2AR) using a Homogeneous Time Resolved Fluorescence (HTRF) assay. Standard protocols are followed. Briefly, a cell suspension and test compound/s is incubated in a standard buffer. Following incubation, the cells are lysed, and the fluorescence acceptor and donor are added. After incubation the fluorescence transfer is measured, and data is analyzed using GraphPad Prism to generate concentration response curves.
# T1 sequence (P28223 whole entry): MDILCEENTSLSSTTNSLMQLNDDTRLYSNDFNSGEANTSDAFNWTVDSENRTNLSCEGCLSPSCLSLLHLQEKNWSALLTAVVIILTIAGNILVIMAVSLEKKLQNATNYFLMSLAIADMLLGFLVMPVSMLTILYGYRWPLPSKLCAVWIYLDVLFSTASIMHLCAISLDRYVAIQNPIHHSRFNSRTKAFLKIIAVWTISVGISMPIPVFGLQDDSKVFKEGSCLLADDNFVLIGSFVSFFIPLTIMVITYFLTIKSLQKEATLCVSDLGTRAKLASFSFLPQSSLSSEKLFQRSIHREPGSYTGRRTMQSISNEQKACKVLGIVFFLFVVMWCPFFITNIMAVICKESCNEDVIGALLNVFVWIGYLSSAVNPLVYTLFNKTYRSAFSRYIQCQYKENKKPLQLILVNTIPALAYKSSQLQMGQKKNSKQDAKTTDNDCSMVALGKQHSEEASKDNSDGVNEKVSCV
SMILES,Emax [%],h5-HT2A EC50,EC50 [µM]
"CC1(C)NCCC=C1c1c[nH]c2ncccc12 [Compound 149, 3-(2,2-dimethyl-1,2,5,6-tetrahydropyridin-3-yl)-1H-pyrrolo[2,3-b]pyridine]",< 50,E,
C1=C(c2c[nH]c3ncccc23)C2CC1CN2 (stereo not drawn) [Compound 134],< 50,E,
"CC1C=C(c2c[nH]c3ncccc23)CN(CC(C)(F)F)C1 (single isomer, unassigned) [103 Isomer 1]",< 50,E,
"C1=C(c2c[nH]c3ncccc23)CNCC12CCC2 [Compound 145, 3-(6-azaspiro[3.5]non-8-en-8-yl)-1H-pyrrolo[2,3-b]pyridine]",< 50,,1 to 10
"CCN1CC(c2c[nH]c3ncccc23)=CC2(CC2)C1 [Compound 144, 3-(5-ethyl-5-azaspiro[2.5]oct-7-en-7-yl)-1H-pyrrolo[2,3-b]pyridine]",75 to 90,,1 to 10
"CC1(C)C=C(c2c[nH]c3ncccc23)CNC1 [Compound 107, 3-(5,5-dimethyl-1,2,5,6-tetrahydropyridin-3-yl)-1H-pyrrolo[2,3-b]pyridine hydrochloride]",,,> 10
"CC1C=C(c2c[nH]c3ncccc23)CN(CC(F)(F)C(F)(F)F)C1 (single isomer, unassigned) [105 Isomer 1]",,E,
"CN1CCC2CC2(c2c[nH]c3ncccc23)C1 (stereo not drawn) [Compound 106, 3-(3-methyl-3-azabicyclo[4.1.0]heptan-1-yl)-1H-pyrrolo[2,3-b]pyridine]",,,> 10
"C1=C(c2c[nH]c3ncccc23)C2(CC2)NCC1 [Compound 147, 3-(4-azaspiro[2.5]oct-7-en-8-yl)-1H-pyrrolo[2,3-b]pyridine hydrochloride]",> 90,,1 to 10
"C1=C(c2nsc3ccccc23)CNCC1 [Compound 160, 3-(1,2,5,6-tetrahydropyridin-3-yl)benzo[d]isothiazole]",> 90,,< 0.1
"FC(F)(F)C1C=C(c2c[nH]c3ncccc23)CNC1 (stereo not drawn) [Compound 101, 3-(5-(trifluoromethyl)-1,2,5,6-tetrahydropyridin-3-yl)-1H-pyrrolo[2,3-b]pyridine]",75 to 90,,1 to 10
"CC1C=C(c2c[nH]c3ncccc23)CN(CC(F)(F)C(F)(F)F)C1 (single isomer, unassigned) [105 Isomer 2]",< 50,E,
"CC1C=C(c2c[nH]c3ncccc23)CN(CC(C)(F)F)C1 (single isomer, unassigned) [103 Isomer 2]",,E,
"CC1(C)CC=C(c2c[nH]c3ncccc23)CN1 [Compound 148, 3-(6,6-dimethyl-1,2,5,6-tetrahydropyridin-3-yl)-1H-pyrrolo[2,3-b]pyridine hydrochloride]",< 50,E,
"CN1CC(c2c[nH]c3ncccc23)=CC(C(F)(F)F)C1 (stereo not drawn) [Compound 102, 3-(1-methyl-5-(trifluoromethyl)-1,2,5,6-tetrahydropyridin-3-yl)-1H-pyrrolo[2,3-b]pyridine]",,,> 10
"N#CC1C=C(c2c[nH]c3ncccc23)CNC1 (stereo not drawn) [Compound 132, 5-(1H-pyrrolo[2,3-b]pyridin-3-yl)-1,2,3,6-tetrahydropyridine-3-carbonitrile]",,,> 10
"CN1CC(c2c[nH]c3ncccc23)=CC(C)(C)C1 [Compound 108, 3-(1,5,5-trimethyl-1,2,5,6-tetrahydropyridin-3-yl)-1H-pyrrolo[2,3-b]pyridine hydrochloride]",,,> 10
"CN1CC(c2c[nH]c3ncccc23)=CC2(CCC2)C1 [Compound 146, 3-(6-methyl-6-azaspiro[3.5]non-8-en-8-yl)-1H-pyrrolo[2,3-b]pyridine dihydrochloride]",50 to 75,,0.1 to 1
"CN1C2CC=C(c3c[nH]c4ncccc34)C1CC2 (stereo not drawn) [Compound 141, 3-(8-methyl-8-azabicyclo[3.2.1]oct-2-en-2-yl)-1H-pyrrolo[2,3-b]pyridine]",,,> 10
